Assay results: paper PMC13415951 (Journal of Experimental Botany, 2026)

Legend:
[1] = system: B. distachyon Bd21-3; design: species or system Brachypodium distachyon; conditions: in vivo
[2] = system: wheat coleoptile tissue; design: method as in Wang and Miller, 1988; conditions: ref Wang and Miller, 1988, cited from earlier work
[3] = target: T1, OsUGT79 H122A/L123A/Q202A (Oryza sativa subsp. japonica, UniProt Q7XT97, H122A/L123A/Q202A); format: biochemical
T1 sequence (Q7XT97 1-466 H122A/L123A/Q202A): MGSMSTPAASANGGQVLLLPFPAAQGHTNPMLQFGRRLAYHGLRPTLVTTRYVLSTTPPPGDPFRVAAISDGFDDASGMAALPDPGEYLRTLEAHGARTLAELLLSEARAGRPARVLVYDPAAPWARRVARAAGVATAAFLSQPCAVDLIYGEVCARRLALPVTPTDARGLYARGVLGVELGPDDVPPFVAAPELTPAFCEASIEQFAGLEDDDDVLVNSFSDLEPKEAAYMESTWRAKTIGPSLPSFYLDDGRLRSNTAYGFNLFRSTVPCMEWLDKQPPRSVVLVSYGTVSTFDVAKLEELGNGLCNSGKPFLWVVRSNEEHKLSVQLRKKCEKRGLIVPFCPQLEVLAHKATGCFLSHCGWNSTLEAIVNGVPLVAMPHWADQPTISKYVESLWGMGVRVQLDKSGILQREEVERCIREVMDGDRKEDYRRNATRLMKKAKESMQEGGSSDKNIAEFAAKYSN

[4] = system: B. distachyon line OE-10R14; design: species or system Brachypodium distachyon; conditions: in vivo
[5] = target: T2, HvUGT13248 (Hordeum vulgare subsp. vulgare, UniProt M0Y4P1)
T2 sequence (M0Y4P1 1-475): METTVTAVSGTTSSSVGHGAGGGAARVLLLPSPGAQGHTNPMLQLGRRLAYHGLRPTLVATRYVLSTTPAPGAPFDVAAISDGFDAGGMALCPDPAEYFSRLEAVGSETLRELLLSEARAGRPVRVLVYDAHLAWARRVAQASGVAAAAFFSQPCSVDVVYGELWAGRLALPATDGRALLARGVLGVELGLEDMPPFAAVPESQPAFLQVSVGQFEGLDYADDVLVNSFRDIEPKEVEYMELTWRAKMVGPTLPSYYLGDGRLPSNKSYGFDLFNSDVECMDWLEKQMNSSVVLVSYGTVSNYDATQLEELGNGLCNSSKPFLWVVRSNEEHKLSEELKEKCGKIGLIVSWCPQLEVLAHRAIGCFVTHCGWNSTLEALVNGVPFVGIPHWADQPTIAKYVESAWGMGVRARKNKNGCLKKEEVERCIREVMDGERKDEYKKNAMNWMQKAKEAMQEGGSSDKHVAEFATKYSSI

[6] = target: T3, BdUGT5g03300 (Brachypodium distachyon, UniProt I1IW79); format: biochemical
T3 sequence (I1IW79 1-469): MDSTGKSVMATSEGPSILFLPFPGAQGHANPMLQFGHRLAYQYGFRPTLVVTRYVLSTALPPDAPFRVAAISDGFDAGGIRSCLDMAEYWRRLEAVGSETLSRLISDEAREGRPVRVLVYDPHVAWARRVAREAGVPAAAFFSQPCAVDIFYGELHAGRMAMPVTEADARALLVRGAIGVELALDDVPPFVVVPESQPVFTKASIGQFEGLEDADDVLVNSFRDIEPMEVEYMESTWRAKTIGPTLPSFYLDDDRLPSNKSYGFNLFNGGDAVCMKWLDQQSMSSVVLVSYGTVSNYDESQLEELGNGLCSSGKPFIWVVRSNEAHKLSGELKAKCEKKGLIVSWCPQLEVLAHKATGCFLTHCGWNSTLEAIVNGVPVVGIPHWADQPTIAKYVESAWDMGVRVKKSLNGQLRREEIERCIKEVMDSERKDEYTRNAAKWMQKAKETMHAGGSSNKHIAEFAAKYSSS

[7] = target: T2, HvUGT13248; assay: biochemical; format: biochemical; design: made in house; host or cells: E. coli
[8] = system: Heliothis zea larvae; design: method as in Dowd et al., 1989; conditions: ref Dowd et al., 1989; cited from earlier work

CC1(C)CCC[C@]2(C)[C@@H]3[C@H]1[C@@H](O)[C@@]2(C)C[C@H]3O [CUL, culmorin]
Effect of CUL alone on root length [1]: did not elicit any significant effect | Effect of CUL with 2 mg l^−1 DON on root length [1]: clear dose-dependent synergistic effect | Phytotoxicity on wheat by itself ([2]; 10 µM CUL (∼3 mg l^−1)): no phytotoxicity | Phytotoxicity on wheat coleoptile tissue ([2]; 1000 µM CUL): phytotoxic effect | Specific activity (glucoside formation) [3]: 2.89 ± 0.10 nmol/min/mg | Effect of addition of CUL to 50 mg l^−1 DON on root length [4]: severe breakdown of resistance to DON | Specific activity (glucoside formation) [5]: 6.94 ± 0.52 nmol/min/mg | Increase of apparent KM with DON [6]: ~50 fold | K ic of CUL (competitive inhibition, DON as variable substrate) [6]: low µM range | K iu of CUL (uncompetitive inhibition, UDP-glucose as variable substrate) [6]: 1.4 µM | Ki ([6]; read-out: K ic of CUL (competitive inhibition, DON as variable substrate)): < 1 µM | Kd ([6]; read-out: KD of CUL at the acceptor binding site (implied by kinetics)): ~1 µM | Increase of apparent KM of DON [7]: ~10 fold | K iu of CUL (uncompetitive inhibition, UDP-glucose as variable substrate) [7]: 91 µM | Ki [7]: 56 µM | Effect on growth of Heliothis zea larvae [8]: no negative effects | Effect on mortality of Heliothis zea larvae in combination with DON [8]: significantly increases mortality
